Results on two compounds are retold here after US9045415B2, “Targeting of EWS-FLI1 as anti-tumor therapy” (Georgetown University, priority 2006, dated 2015).

For orientation: melting point means the temperature of the solid-liquid transition.

One series concerns ESFT cell line CHP-100. The experiment in a line: CHP-100 tumors in nude mice treated with YK-4-275. Conditions: treated for 4 days when tumors palpable. Type of series: in vivo. As for the experimental part:
Nude mice were inoculated with ESFT cell line CHP-100. When tumors were palpable, animals were treated with YK-4-275 (NSC635437) for 4 days. Curves show tumor volumes over time.

The test system of series [1] is neuroblastoma SKNAS cells. The experiment in a line: Monolayer cell growth, neuroblastoma. The format is cell-based. Conditions: SK-N-AS, 72 hours continuous presence. From the text: FIGS. 8A-E show E9RP inhibits ESFT cell growth. In FIGS. 8A and 8B, E9RP is the peptide region of RHA (SEQ ID NO:29) fused to the Penetratin peptide (from the Antennapedia homeodomain; SEQ ID NO:34) and contains amino-terminal fluorescein (FITC). […] Neither lipids nor electricity were used for transduction of peptides into cells. Confocal microscopy identified peptide throughout cells with nuclear uptake. Nuclear uptake was confirmed by DAPI staining. […] Cell lines were placed in 96-well plates with either vehicle alone (●), or E9RP (10 μM) on days 0, 3 and 5 (▴). No lipid or other transfection method was utilized. This represents two experiments with similar results. FIG. 8D depicts dose response of ESFT 1 to either wild-type or single amino-acid mutant peptides. (▪) wild-type E9RP, (E9R (SEQ ID NO:29) fused to the Penetratin peptide (SEQ ID NO:34)), (▾)(E9RP (P2A peptide (SEQ ID NO:30) fused to the Penetratin peptide (SEQ ID NO:34)), (▴)E9RP (D5A peptide (SEQ ID NO:31) fused to the Penetratin peptide (SEQ ID NO:34)). Growth normalized to treating cells with the 16 aa Antp sequence alone (SEQ ID NO:34). FIG. 8E is a comparison of wild-type versus mutant peptides in ESFT and NB cells.
In FIG. 13A, recombinant EWS-FLI1 was treated with NSC635437 for 30 minutes. GST-RHA (630-1020) was added and the complexes were then precipitated with antibody to EWS-FLI1 and Protein G beads. Resolved complexes showing the immunoprecipitated complex control without compound are in lanes 3 (0.1% DMSO) and 5 (0.01% DMSO). […] ESFT TC32 (◯) and neuroblastoma SK-N-AS (▪) were grown for 72 hours in the continuous presence of NSC635437. Cells were incubated in MTT reagent for 4 hours and the dried precipitate was dissolved isopropanol and the absorbance read at 570 nm. Each cell line was standardized to the growth of the DMSO control.
FIG. 30 provides data to show E9R peptide prevents EWS-FLI1 binding to RHA with specific detrimental effects upon ESFT growth and transformation. […] Scale bar equals 20 μm. […] Only expression of EGFP-E9R in TC71 reduced anchorage independent growth. […] Scale bar equals 20 μm.

In the next series the test system is TC32. The experiment in a line: Nuclear fragmentation (DAPI), TC32. The format is cell-based. Conditions: 50 μM, 6 hours. As for the experimental part:
(§1) Cells were treated for 24 hours with 10 μM YK-4-279. The Caspase-3 substrate DEVD-AMC was incubated with equal amounts of protein lysate and fluorescence from cleaved substrate measured in a fluorimeter. TC32 and non-transformed cells HEK-293, HFK, and HEC were treated for 6 hours with high dose (50 μM) YK-4-279. DAPI stained cells were photographed at 600× using inverted fluorescence microscope.

The next series has as its system EWS-FLI1. The experiment in a line: SPR displacement assay of E9R from EWS-FLI1. Type of series: binding. From the text:
FIG. 31 provides data showing a small molecule binding to EWS-FLI1 and displaces E9R from EWS-FLI1. […] Aromatic functionalization produced YK-4-279 a para-methoxy derivative of NSC635437. […] A FLI1 antibody complexed EWS-FLI1 and precipitated it from the solution.
An aromatic optimization strategy was used to design analogs to improve upon the activity of NSC635437.

The test system of series [2] is ESFT cell lines (TC32, A4573, TC71, and ES925). Kind of series: Caspase-3 activity (DEVD-AMC cleavage), ESFT cell lines. Type of series: cell-based. Conditions: 24 hours. How it is done:
as §1

For series [3], the system named is ESFT xenografts (TC71 and CHP-100). The experiment in a line: ESFT orthotopic xenografts treated with YK-4-279. The format is in vivo, mice. As for the experimental part: Xenografts were established with injection of either ESFT (CHP-100 or TC71) or Prostate cancer (PC3) cells. […] Single experiment growth curves depicted are representative of five independent experiments. […] Tumor volumes at day 14 after treatment initiation compared across 5 experiments (DMSO n=19, YK-4-279 n=25, p<0.0001, by Mann-Whitney test).
One million TC71 or CHP-100 cells in 100 μL HBSS were injected orthotopically into the gastrocnemius muscle of 4-8 week old SCID/bg mice (Taconic, Germantown, N.Y.). Prostate cancer xenografts were established by subcutaneous injection of 5 million PC3 cells into the flanks of 4-8 week old nude mice (Taconic). Mice were randomized to receive three times per week intraperitoneal injections of DMSO, YK-4-279 at 1.5 mg/dose when tumors were palpable. Each of the animal experiments was begun with 10 mice that were randomized into treatment and control groups when the tumors reached palpable size. In the control groups some tumors exceeded the IACUC maximal size (2 cm in any dimension) and were euthanized prior to day 14 and thus not included in the day 14 analysis (FIG. 6c). Tumor length and width were measured every 2-4 days and volume was calculated using the formula […] where D is the longest diameter and d is the shorter diameter. Xenograft studies were approved by the Memorial Sloan-Kettering Cancer Center Institutional Animal Care and Use Committee.

Series [4] relates to EWS-FLI1 responsive NROB1 promoter. The experiment in a line: Luciferase reporter assay of EWS-FLI1 responsive NROB1 promoter in COS7 cells. The format is cell-based. Conditions: 3 and 10 μM, 18 hours. As for the experimental part: FIG. 32 provides data showing YK-4-279 reduces EWS-FLI1 functional activity. FIG. 32A concerns TC32 cells that were treated with YK-4-279 and resolved protein lysates and that were immunoblotted for co-precipitated RHA (top), EWS-FLI1 (middle), or total RHA (bottom).
EGFP-E9R fusion constructs prepared as published (Frangioni, J. V. & Neel, B. G. Use of a general purpose mammalian expression vector for studying intracellular protein targeting: identification of critical residues in the nuclear lamin A/C nuclear localization signal. J Cell Sci 105 (Pt 2), 481-488 (1993)). We transiently transfect the NR0B131 luciferase reporter and full-length EWS-FLI1 into COS-7 cells with Fugene-6 (Roche) and luciferase assay performed per manufacturer's protocol (Dual Luciferase Kit, Promega). Six hours following transfection, cells were treated with either 3 or 10 μM YK-4-279. Cell lysates luciferase activity levels were standardized to renilla activity from a non-affected promoter and plotted as relative luciferase activity (RLA).
For orientation: In a reporter assay the amount or activity of a reporter protein is the signal.

On to `O=C(CC1(O)C(=O)Nc2c(Cl)ccc(Cl)c21)c1ccc(Cl)cc1` (centres unmarked) [NSC635437, 4,7-Dichloro-3-[2-(4-chlorophenyl)-2-oxoethyl]-3-hydroxyl-1,3-dihydro-2H-indol-2-one], for which the melting point lay within 194 to 196 °C. For the same compound, in the series with ESFT cell line CHP-100, the tumor growth result is “inhibition of tumor growth”. In addition, the “cell growth (MTT)” value in series [1] is on record as “not neuroblastoma cell growth”.

Consider `COc1ccc(C(=O)CC2(O)C(=O)Nc3c(Cl)ccc(Cl)c32)cc1` (centres unmarked) [YK-4-279, 4,7-Dichloro-3-hydroxy-3-[2-(4-methoxyphenyl)-2-oxoethyl]-1,3-dihydro-2H-indol-2-one], for which, in the series on TC32, the “apoptosis (nuclear fragmentation)” value was “significant apoptosis”. Also, the results for the “binding of E9R to EWS-FLI1” value with EWS-FLI1 (32 μM E9R with 10 μM YK-4-279) and in the series with EWS-FLI1 (64 μM E9R with 10 μM YK-4-279) were 5 R.U and 7 R.U, respectively. Also, the caspase-3 activity result in series [2] (TC32 cells, dose range) is reported as “rose in a dose dependent fashion”. Also, the caspase-3 activation entry in series [2] (four ESFT cell lines, 10 μM) was “induced caspase-3 activity”. In addition, the tumor growth entry in series [3] (60-75 mg/kg) is given as “significantly reduced tumor growth”. Also, the tumor growth rate entry in series [3] (CHP-100, 1.5 mg/dose i.p. three times per week) is given as “reduced”. Besides, in series [3] (CHP-100 xenograft tumors, immunohistochemistry), the “increase in caspase-3 activity in tumors compared to control animals” value was 3 fold. Further, the “overall response, tumor volumes at day 14, five experiments” value in series [3] (TC71 and CHP-100, 1.5 mg/dose) was “marked overall tumor reduction”. In addition, the “pathological analysis of treated animals” value in series [3] (mouse, in vivo) is “did not show any signs of toxicity except changes related to IP injection”. For the same compound, in series [4], the NROB1 promoter activity entry is recorded as “dose-dependent decrease in promoter activity”.
